Measurements: patent EP0980535B1, “PHOTOCHROMIC COMPOSITIONS, PHOTOCHROMIC COMPOUNDS (CO)POLYMER MATRICES” (Corning S.A., priority 1997, dated 1998)

Test: Photochromic properties of the compound in the (co)polymer matrix under xenon lamp exposure
Type: physicochemical
Details: for λmax (nm): same conditions as compound (I): 0.05% by weight in matrix; for T0 (%) / DO induced: same conditions as compound (I); for DO induced: xenon lamp (40.000 lux); for color exhibited: color of the photochromic compound
Method: The matrix is based on a short-chain (meth)acrylate difunctional monomer and a long-chain alkenic difunctional monomer. Used at 0.05% by weight within the matrix (conditioned under 2 mm thickness), the compound has led to the results shown in the Table below.
Compounds C1, C2, C3, other naphthopyrans according to the application WO-A-94 22850, are identified by their developed formula in the Example part of the text. All compounds (II), C1, C2, C3 were tested under the same conditions as those indicated above with reference to compound (I).
The half-time of fading : t1/2, expressed in seconds is specified below for each one of the compounds. This parameter characterizes the kinetics of the return to the initial state (after darkening)(see its exact definition given earlier in the present text with reference to the Table grouping the properties of compound (I)).

[1] = 0.05% by weight within the matrix, 2 mm thickness
[2] = optical density after minus before exposure under a xenon lamp (40.000 lux), 0.05% by weight in matrix, 2 mm
[3] = transmission before exposure, 0.05% by weight in matrix, 2 mm

SMILES | λmax (nm) (2 mm) | T0 (%) (transmission before exposure) | DO induced | color exhibited | λmax 1 [1] [nm] | λmax 2 [1] [nm] | DOinduced** at 489 nm [2] | DOinduced** at 588 nm [2] | T0* at 489 nm [3] [%] | T0* at 588 nm [3] [%]
COc1ccc(C2(c3ccccc3)C=Cc3c(cc(N4CCOCC4)c4ccccc34)O2)cc1 (centres unmarked) [Compound (II), 3-(p-methoxyphenyl)-3-phenyl-6-morpholino-3H-naphtho-[2,1-b]pyran] | 439 | 79 | 1.65 | yellow |  |  |  |  |  | 
COc1ccc(C2(c3ccc(N(C)C)cc3)C=Cc3c(C)cc4c(OC)cc(OC)cc4c3O2)cc1 (centres unmarked) [Compound (I), 2-(p-dimethylaminophenyl)-2-(p-methoxyphenyl)-5-methyl-7,9-dimethoxy-[2H]-naphtho[1,2-b]pyran] |  |  |  | violet | 489 | 588 | 0.58 | 0.94 | 85 | 86

Now from value to compound:

λmax (nm) (2 mm) | T0 (%) (transmission before exposure) | DO induced | color exhibited | λmax 1 [1] [nm] | λmax 2 [1] [nm] | DOinduced** at 489 nm [2] | DOinduced** at 588 nm [2] | T0* at 489 nm [3] [%] | T0* at 588 nm [3] [%] | SMILES
430 | 79 | 1.77 |  |  |  |  |  |  |  | COc1ccc(C2(c3ccccc3)C=Cc3c(cc(N4CCCCC4)c4ccccc34)O2)cc1 (centres unmarked) [Compound C3, reference compound]
456 | 74 | 1.37 |  |  |  |  |  |  |  | COc1ccc(C2(c3ccc(OC)cc3)C=Cc3c(cc(N4CCOCC4)c4ccccc34)O2)cc1 [Compound C1, reference compound]
430 | 68 | 1.60 |  |  |  |  |  |  |  | COc1ccc(C2(c3ccc(C(F)(F)F)cc3)C=Cc3c(cc(N4CCOCC4)c4ccccc34)O2)cc1 (centres unmarked) [Compound C2, reference compound]
